This is an account of results in publication PMC5780263 (Xenobiotica; the fate of foreign compounds in biological …, 2017).

The test system of data set [1] is CYP1A1, 1A2, 1B1.1, 1B1.3, 2D6, 2E1, 2C9, and 3A4. In words: Spectral binding titration with other purified human P450 enzymes. The settings on record: authors' assay conditions.
Another data set addresses T1, CYP2A13.1 (Homo sapiens, UniProt Q16696).
T1 sequence (Q16696 31-494 limits assumed): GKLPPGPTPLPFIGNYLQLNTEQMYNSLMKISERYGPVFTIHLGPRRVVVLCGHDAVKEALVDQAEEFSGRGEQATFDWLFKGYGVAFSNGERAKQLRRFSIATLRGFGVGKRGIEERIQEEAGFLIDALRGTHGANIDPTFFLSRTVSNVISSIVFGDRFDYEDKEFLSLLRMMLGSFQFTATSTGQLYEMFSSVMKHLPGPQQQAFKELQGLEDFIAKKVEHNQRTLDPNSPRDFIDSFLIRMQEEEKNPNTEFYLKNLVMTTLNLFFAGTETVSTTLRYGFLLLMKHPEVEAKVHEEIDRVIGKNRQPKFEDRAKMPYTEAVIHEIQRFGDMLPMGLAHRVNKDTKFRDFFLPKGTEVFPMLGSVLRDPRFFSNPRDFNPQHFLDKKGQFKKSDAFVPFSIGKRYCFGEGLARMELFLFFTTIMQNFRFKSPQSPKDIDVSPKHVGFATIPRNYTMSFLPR
The data set is classed as in vitro ADME. The settings on record: 10 µM substrate, 37 °C, 20 min, b5 added, HPLC-fluorescence.

The target in the next data set is T2, CYP1B1.1 (Homo sapiens, UniProt Q16678).
T2 sequence (Q16678 1-543): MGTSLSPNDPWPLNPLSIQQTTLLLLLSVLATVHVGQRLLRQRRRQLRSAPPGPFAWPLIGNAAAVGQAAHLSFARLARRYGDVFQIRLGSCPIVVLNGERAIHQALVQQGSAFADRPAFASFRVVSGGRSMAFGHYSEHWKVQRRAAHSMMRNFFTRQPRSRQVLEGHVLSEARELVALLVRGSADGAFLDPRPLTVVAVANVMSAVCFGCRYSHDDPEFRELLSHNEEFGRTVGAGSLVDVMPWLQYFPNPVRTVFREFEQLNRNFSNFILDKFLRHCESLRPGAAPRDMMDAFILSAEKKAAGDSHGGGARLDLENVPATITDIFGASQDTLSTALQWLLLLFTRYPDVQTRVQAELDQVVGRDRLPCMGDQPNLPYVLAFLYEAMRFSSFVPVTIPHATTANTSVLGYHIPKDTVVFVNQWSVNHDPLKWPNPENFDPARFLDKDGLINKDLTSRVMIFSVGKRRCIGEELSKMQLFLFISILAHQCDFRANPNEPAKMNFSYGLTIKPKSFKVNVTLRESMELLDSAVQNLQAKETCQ
The data set is classed as in vitro ADME. The settings on record: 10 µM substrate, 37 °C, 20 min, HPLC-fluorescence.

In a further data set the target is T3, CYP1A1 (Homo sapiens, UniProt P04798).
T3 sequence (P04798 1-512): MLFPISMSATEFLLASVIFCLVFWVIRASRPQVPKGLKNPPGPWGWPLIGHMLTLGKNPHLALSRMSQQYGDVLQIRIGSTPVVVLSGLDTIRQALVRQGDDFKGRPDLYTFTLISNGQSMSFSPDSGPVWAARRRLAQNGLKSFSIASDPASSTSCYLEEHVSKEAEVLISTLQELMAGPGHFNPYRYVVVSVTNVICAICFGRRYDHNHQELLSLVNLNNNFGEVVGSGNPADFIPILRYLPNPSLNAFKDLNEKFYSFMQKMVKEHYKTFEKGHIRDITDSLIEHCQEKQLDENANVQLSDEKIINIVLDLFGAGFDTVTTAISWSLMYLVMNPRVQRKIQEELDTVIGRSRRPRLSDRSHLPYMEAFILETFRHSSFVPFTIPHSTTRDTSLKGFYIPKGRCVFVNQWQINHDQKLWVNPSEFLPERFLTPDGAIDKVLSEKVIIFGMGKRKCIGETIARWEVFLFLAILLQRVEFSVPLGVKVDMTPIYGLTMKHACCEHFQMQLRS
The data set is classed as in vitro ADME. To be noted: 10 µM substrate, 37 °C, 20 min, HPLC-fluorescence.

For another data set, the target named is T4, CYP2A6 (Homo sapiens, UniProt P11509).
T4 sequence (P11509 1-494): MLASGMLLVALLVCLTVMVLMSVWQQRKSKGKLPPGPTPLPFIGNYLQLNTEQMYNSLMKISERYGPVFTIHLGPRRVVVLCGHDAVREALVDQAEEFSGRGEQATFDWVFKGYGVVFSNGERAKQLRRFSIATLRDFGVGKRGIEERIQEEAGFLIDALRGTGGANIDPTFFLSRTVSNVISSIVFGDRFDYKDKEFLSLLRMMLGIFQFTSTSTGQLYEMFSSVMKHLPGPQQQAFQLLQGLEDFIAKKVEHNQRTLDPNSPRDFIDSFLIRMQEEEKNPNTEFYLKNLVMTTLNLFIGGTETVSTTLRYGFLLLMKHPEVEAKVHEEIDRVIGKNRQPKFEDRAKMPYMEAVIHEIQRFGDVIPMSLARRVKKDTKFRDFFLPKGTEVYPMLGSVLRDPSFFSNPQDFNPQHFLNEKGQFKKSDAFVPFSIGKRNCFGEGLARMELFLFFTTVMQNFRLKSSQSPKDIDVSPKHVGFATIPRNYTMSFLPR
The settings on record: previous studies, ref Shimada et al., 2016a; cited from earlier work.

For `Clc1ccc2ccc3cccc4ccc1c2c34` [1-chloropyrene], the Spectral changes entry in data set [1] is on record as “did not show any detectable spectral changes”. Moreover, the Hydroxylated products formed entry at CYP2A13.1 was “catalyzed hydroxylation at the 8- and 3-positions”; at CYP1B1.1, “only formed the 6-hydroxy product”; on CYP1A1, “produced 8-, 6-, and 3-hydroxylated products at significant levels”. In the case of `O=[N+]([O-])c1ccc2ccc3cccc4ccc1c2c34` [1-nitropyrene], the “Type I binding spectra” value on CYP2A6 is given as “do not show detectable Type I binding spectra”. Regarding `c1cc2ccc3cccc4ccc(c1)c2c34` [pyrene], the “Type I binding spectra” value on CYP2A6 is “do not show detectable Type I binding spectra”. As for `CC(=O)c1ccc2ccc3cccc4ccc1c2c34` [1-acetylpyrene], the “Type I binding spectra” value at CYP2A6 was “do not show detectable Type I binding spectra”.
